For this test, the target named is MAPKAP-K2 (Homo sapiens, UniProt P49137). The test can be described thus: MAPKAP-K2 enzyme activity inhibition assay, Method B (33P-ATP, MultiScreen-PH plate). Format: biochemical. To be noted: recombinant human MAPKAP-K2, 0.5% DMSO, 30 min room temperature, read-out: Inhibitory activity (MAPKAP-K2 IC50 class). The procedure:
The assay of inhibitory activity was performed according to Method A described below for Compound No. 1, 2, 3, 4, 20, 21, 22, 23, 24, 25, 26, 79, 80 and 81, and Method B described below for the other compounds.
A compound was dissolved in […] to make its concentration to 20 mmol/L, and the resultant solution was stored at −20° C. The stock solution was sequentially diluted with DMSO to prepare a solution having a 200-fold concentration of the required range. Further the solution was diluted with water to 1:20 to prepare a solution having a 10-fold concentration of the required range, and an aliquot of 5 μL of each solution was used for every reaction with 50 μL. During the continuous dilution of all compounds, the final DMSO concentration was maintained at 0.5%. Compounds were routinely tested at a final concentration ranging from 100 μmol/L to 0.03 μmol/L, but were sometimes tested at a lower concentration depending upon their activity.
The reaction was initiated by adding 25 μL of a peptide substrate solution [60 μmol/L substrate peptide, 20 μmol/L ATP, 50 mmol/L Tris buffer (pH 7.5), 0.1 mmol/L EGTA, 0.1% β-mercaptoetanol, 20 mmol/L magnesium acetate, and 0.1 μCi [γ-33P]ATP (specific radio activity: approximately 110 TBq/mmol)] to 5 μL of a 5% DMSO solution of the test compound and subsequently adding 20 μL of a MAPKAP-K2 enzyme solution [10 mU recombinant human MAPKAP-K2, 50 mmol/L Tris buffer (pH 7.5), 0.1 mmol/L EGTA, 0.1% β-mercaptoethanol, 0.1% BSA]. After performing the reaction for 30 min at room temperature, an equivalent volume of 200 mmol/L phosphoric acid solution was added to terminate the reaction. Subsequently, 90 μL of the reaction product was adsorbed on a MultiScreen-PH Plate (Millipore) and then rinsed with 100 mmol/L phosphoric acid solution. After drying the plate, 30 μL of MicroScint-O (Packard BioScience) was added, and further the count per minute was measured by a scintillation counter to determine the inhibitory activity. The substrate peptide was Lys-Lys-Leu-Asn-Arg-Tlr-Leu-Ser-Val-Ala.
• % Control=(X−B)/(Tot−B)×100 • % Inhibition=100—% Control • X=count per minute of a test compound well • B=count per minute of a well without containing enzyme • Tot=count per minute of a well with DMSO solvent only, without containing the test compound (MAPKAP-K2 inhibitory activity) • IC50 value=the compound concentration at 50% inhibition

Some results are limits rather than exact numbers.

A word on the IC50: it is the concentration needed to halve the response being measured.

Sequence of MAPKAP-K2 (P49137 whole entry): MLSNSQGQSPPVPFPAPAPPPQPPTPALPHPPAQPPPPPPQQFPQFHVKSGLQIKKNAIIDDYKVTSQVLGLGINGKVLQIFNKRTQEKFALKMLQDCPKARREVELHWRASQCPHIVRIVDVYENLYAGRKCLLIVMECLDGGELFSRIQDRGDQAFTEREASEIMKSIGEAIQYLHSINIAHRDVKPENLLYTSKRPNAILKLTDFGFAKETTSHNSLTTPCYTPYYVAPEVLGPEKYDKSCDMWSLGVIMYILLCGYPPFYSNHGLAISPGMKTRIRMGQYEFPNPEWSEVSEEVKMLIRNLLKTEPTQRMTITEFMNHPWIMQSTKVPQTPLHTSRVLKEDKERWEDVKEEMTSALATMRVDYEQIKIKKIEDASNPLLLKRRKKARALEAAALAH

As for `CCOc1ccc(Nc2c(C)c(OC3CC(C)(C)CC(C)(CN)C3)nc3ccnn23)cc1` (stereo not drawn) [compound 44], the IC50 lay in the range of 20 to 100 µM.
As for `CSc1nc2ccc(Nc3c(C)c(OC4CCCNC4)nc4ccnn34)cc2s1` (stereo not drawn) [compound 45], the figure is no more than 2 µM.
On to `CSc1nc2ccc(Nc3c(C)c(O[C@H]4CC[C@@H](N)CC4)nc4ccnn34)cc2s1` [compound 46], for which the IC50 is no more than 2 µM.
As for `COC(=O)c1ccc(Nc2c(C)c(OC3CCCNC3)nc3ccnn23)cc1` (stereo not drawn) [compound 47], the figure is 2 to 20 µM.
Take `Cc1c(OC2CCCNC2)nc2ccnn2c1Nc1cccc(NS(C)(=O)=O)c1` (stereo not drawn) [compound 48]: the IC50 lay within 2 to 20 µM.
Consider `Cc1c(OC2CCCNC2)nc2ccnn2c1Nc1cc(OC2CCCNC2)c(C#N)cc1F` (stereo not drawn) [compound 49], for which the IC50 lay in the range of 20 to 100 µM.
For `COc1cc(Nc2c(C)c(OC3CCCNC3)nc3ccnn23)cc(OC)c1` (stereo not drawn) [compound 50], the half-maximal inhibitory concentration (IC50) is 20 to 100 µM.
For `Cc1c(OC2CCCNC2)nc2ccnn2c1Nc1ccc(C(=O)c2ccccc2)cc1` (stereo not drawn) [compound 51] the value was 2 to 20 µM; for `Cc1c(OC2CCCNC2)nc2ccnn2c1Nc1ccc(Cc2ccccc2)cc1` (stereo not drawn) [compound 52], 2 to 20 µM; for `Cc1c(OC2CCCNC2)nc2ccnn2c1Nc1ccc(C#N)c(C(F)(F)F)c1` (stereo not drawn) [compound 53], 20 to 100 µM.
For `Cc1c(OC2CCCNC2)nc2ccnn2c1Nc1ccc(SC(F)(F)F)cc1` (stereo not drawn) [compound 54] the value was 2 to 20 µM; for `COc1ccc(Cl)cc1Nc1c(C)c(OC2CCCNC2)nc2ccnn12` (stereo not drawn) [compound 55], 20 to 100 µM.
For `CCn1c2ccccc2c2cc(Nc3c(C)c(OC4CCCNC4)nc4ccnn34)ccc21` (stereo not drawn) [compound 56] the value was 2 to 20 µM; for `Cc1c(OC2CCCNC2)nc2ccnn2c1Nc1ccc(OC(F)(F)F)c(Cl)c1` (stereo not drawn) [compound 57], 2 to 20 µM; for `CCOc1ccc(Nc2c(C)c(OC3CNCCC3CO)nc3ccnn23)cc1` (stereo not drawn) [compound 58], 2 to 20 µM.
Regarding `COc1ccc(Nc2ccc(Nc3c(C)c(OC4CCCNC4)nc4ccnn34)cc2)cc1` (stereo not drawn) [compound 59], the concentration for half-maximal inhibition (IC50) was no more than 2 µM.
As for `Cc1ccc2nc(-c3ccc(Nc4c(C)c(OC5CCCNC5)nc5ccnn45)cc3)sc2c1` (stereo not drawn) [compound 60], the figure is no more than 2 µM.
As for `Cc1c(OC2CCCNC2)nc2ccnn2c1Nc1ccc(S(=O)(=O)N2CCOCC2)cc1` (stereo not drawn) [compound 61], the figure is 2 to 20 µM; as for `CC(=O)c1ccc(Nc2c(C)c(OC3CCCNC3)nc3ccnn23)cc1` (stereo not drawn) [compound 62], 2 to 20 µM.
For `Cc1c(OC2CCCNC2)nc2ccnn2c1Nc1cccc2cnccc12` (stereo not drawn) [compound 63] the value was 20 to 100 µM.
Take `COc1ccc(Cl)cc1Nc1c(C)c(O[C@H]2CC[C@@H](N)CC2)nc2ccnn12` [compound 64]: the IC50 fell in the range of 2 to 20 µM.
As for `CCn1c2ccccc2c2cc(Nc3c(C)c(O[C@H]4CC[C@@H](N)CC4)nc4ccnn34)ccc21` [compound 65], the figure is no more than 2 µM; as for `COc1ccc(Nc2ccc(Nc3c(C)c(O[C@H]4CC[C@@H](N)CC4)nc4ccnn34)cc2)cc1` [compound 66], no more than 2 µM.
As for `COC(=O)c1ccc(Nc2c(C)c(O[C@H]3CC[C@@H](N)CC3)nc3ccnn23)cc1` [compound 67], the IC50 was in the range of 20 to 100 µM.
For `Cc1c(O[C@H]2CC[C@@H](N)CC2)nc2ccnn2c1Nc1cc(F)c(C#N)cc1F` [compound 68] the value was 2 to 20 µM; for `Cc1c(O[C@H]2CC[C@@H](N)CC2)nc2ccnn2c1Nc1ccc(C(=O)c2ccccc2)cc1` [compound 70], no more than 2 µM; for `Cc1c(O[C@H]2CC[C@@H](N)CC2)nc2ccnn2c1Nc1ccc(C#N)c(C(F)(F)F)c1` [compound 72], no more than 2 µM.
For `Cc1c(O[C@H]2CC[C@@H](N)CC2)nc2ccnn2c1Nc1ccc(SC(F)(F)F)cc1` [compound 73] the value was no more than 2 µM.
Turning to `Cc1c(OC2CCCNC2)nc2ccnn2c1Nc1ccc2nc(SC(C)C)sc2c1` (stereo not drawn) [compound 74], the IC50 was in the range of 2 to 20 µM.
As for `Cc1c(O[C@H]2CC[C@@H](N)CC2)nc2ccnn2c1Nc1ccc2nc(SC(C)C)sc2c1` [compound 75], the figure is no more than 2 µM; as for `Cc1c(O[C@H]2CC[C@@H](N)CC2)nc2ccnn2c1Nc1ccc(OCc2ccccc2)cc1` [compound 76], no more than 2 µM.
Regarding `Cc1c(O[C@H]2CC[C@@H](N)CC2)nc2ccnn2c1Nc1ccc(I)cc1` [compound 77], the IC50 is no more than 2 µM.
As for `Cc1c(O[C@H]2CC[C@@H](N)CC2)nc2ccnn2c1Nc1ccc(O)cc1` [compound 78], the figure is no more than 2 µM.
For `CCOc1ccc(Nc2c(C)c(O[C@@H]3CNCC[C@H]3CC(=O)NC)nc3ccnn23)cc1` [compound 83] the value was 2 to 20 µM.
As for `CCOc1ccc(Nc2c(C)c(O[C@@H]3CNCC[C@H]3CC(=O)N(C)C)nc3ccnn23)cc1` [compound 84], the figure is 2 to 20 µM; as for `CCOc1ccc(Nc2c(C)c(O[C@@H]3CNCC[C@H]3CC(=O)NCc3ccccc3)nc3ccnn23)cc1` [compound 85], 2 to 20 µM.
`CCOc1ccc(Nc2c(C)c(O[C@@H]3CNCC[C@H]3CC(=O)NC3CC3)nc3ccnn23)cc1` [compound 86]: the concentration for half-maximal inhibition (IC50) was in the range of 2 to 20 µM.
For the molecule `CCOc1ccc(Nc2c(C)c(O[C@@H]3CN(C(=O)OCc4ccccc4)CC[C@H]3CC(=O)NCc3ccccc3)nc3ccnn23)cc1` [compound 87], the half-maximal inhibitory concentration (IC50) was in the range of 20 to 100 µM.
As for `Cc1c(O[C@H]2CC[C@@H](N)CC2)nc2ccnn2c1Nc1ccc(OCCN2CCOCC2)cc1` [compound 90], the figure is no more than 2 µM; as for `CC(=O)c1ccc(-c2ccc(Nc3c(C)c(O[C@H]4CC[C@@H](N)CC4)nc4ccnn34)cc2)s1` [compound 92], no more than 2 µM; as for `CCc1c(O[C@H]2CC[C@@H](N)CC2)nc2ccnn2c1Nc1ccc(I)cc1` [compound 102], no more than 2 µM.
As for `CCOc1ccc(Nc2c(C)c(OC3CCNCC3)nc3ccnn23)cc1` [compound 239], the figure is no more than 2 µM; as for `Cc1c(OC2CCNCC2)nc2ccnn2c1Nc1ccc(OCc2ccccc2)cc1` [compound 240], 2 to 20 µM; as for `CCOc1ccc(Nc2c(C)c(OCC3CCCNC3)nc3ccnn23)cc1` (stereo not drawn) [compound 244], 2 to 20 µM.
For `CCOc1ccc(Nc2c(C)c(OCC3CCCCN3)nc3ccnn23)cc1` (stereo not drawn) [compound 245] the value was 20 to 100 µM; for `CCOc1ccc(Nc2c(C)c(OC3CCN(C)CC3)nc3ccnn23)cc1` [compound 253], 2 to 20 µM.
As to `CCOc1ccc(Nc2c(C)c(OC3CCN(C)C3)nc3ccnn23)cc1` (stereo not drawn) [compound 256], the 50% inhibitory concentration (IC50) lay within 20 to 100 µM.
For `CCOc1ccc(Nc2c(C)c(OCC(C)=O)nc3ccnn23)cc1` [compound 259] the value was 20 to 100 µM; for `CCOc1ccc(Nc2c(C)c(OC[C@H]3CCCN3)nc3ccnn23)cc1` [compound 260], 20 to 100 µM.
As for `CCOc1ccc(Nc2c(C)c(OC[C@@H]3CCCN3)nc3ccnn23)cc1` [compound 261], the figure is 20 to 100 µM.
Take `CCOc1ccc(Nc2c(C)c(OCCNC)nc3ccnn23)cc1` [compound 263]: the half-maximal inhibitory concentration (IC50) fell in the range of 20 to 100 µM.
For `CCOc1ccc(Nc2c(C)c(O[C@@H]3CCNC3)nc3ccnn23)cc1` [compound 264] the value was 20 to 100 µM; for `Cc1c(O[C@H]2CC[C@@H](N)CC2)nc2ccnn2c1NCc1ccccc1` [compound 268], 2 to 20 µM; for `Cc1c(OC2CCCNC2)nc2ccnn2c1NCc1ccccc1` (stereo not drawn) [compound 269], 2 to 20 µM.
As for `Cc1c(OCCN)nc2ccnn2c1NCc1ccccc1` [compound 270], the figure is 20 to 100 µM.
Regarding `Cc1c(O[C@H]2CC[C@@H](N)CC2)nc2ccnn2c1NC1CCCC1` [compound 271], the half-maximal inhibitory concentration (IC50) was 2 to 20 µM.
For `Cc1c(OC2CCCNC2)nc2ccnn2c1NC1CCCC1` (stereo not drawn) [compound 272] the value was 2 to 20 µM.
As for `CCOc1ccc(Nc2c(-c3ccccc3)c(OCCN)nc3ccnn23)cc1` [compound 273], the figure is 20 to 100 µM.
For `N[C@H]1CC[C@@H](Oc2nc3ccnn3c(Nc3ccc(OCc4ccccc4)cc3)c2-c2ccccc2)CC1` [compound 274] the value was 2 to 20 µM; for `c1ccc(COc2ccc(Nc3c(-c4ccccc4)c(OC4CCCNC4)nc4ccnn34)cc2)cc1` (stereo not drawn) [compound 275], 2 to 20 µM.
